This assay has as its system MCH receptors. Put plainly: MCH receptor activity class (method not given).
Where [1] appears, read: MCH receptor activity class 1-3 (percent of control at 10^-7 M or IC50).
The mark [2] stands for this setting: class by percent of control at 10^−7 M or IC50.
Setting [3] is: class by percent of control at 10^-7 M or IC50.
Where [4] appears, read: activity class 1-3: percent of control at 10^-7 M or IC50.
[5] abbreviates: MCH receptor, class by percent of control at 10^-7 M or IC50.

Like-named read-outs stand apart in the source and are kept apart here.

Regarding `CN(C)c1cc(N[C@H]2CC[C@@H](CNC(=O)Nc3cccc(Cl)c3Cl)CC2)nc2ccccc12` [compound 2394], the class under setting [1] is listed as 2 (Class 2: The value of percent of control at 10^−7 M was from 40% to 60% or the value of IC′50 was from 50 nM to 200 nM.).
Take `COc1cccc([C@H](C)NC(=O)[C@H]2CC[C@@H](Nc3nc(C)cc(N(C)C)n3)CC2)c1` [compound 2803, cis-4-{[4-(dimethylamino)-6-methylpyrimidin-2-yl]amino}-N-[(1S)-1-(3-methoxyphenyl)ethyl]cyclohexanecarboxamide]: the class under setting [2] is reported as 2 (Class 2: The value of percent of control at 10^−7 M was from 40% to 60% or the value of IC′50 was from 50 nM to 200 nM.).
Consider `Cc1cccc(C)c1NC(=O)N[C@H]1CC[C@@H](Nc2nccc(N(C)C)n2)CC1` [compound 2180], for which the class under setting [3] was 3 (Class 3 The value of percent of control at 10^−7 M was more than 60% or the value of IC50 was more than 200 nM.).
The same measure, in the same setting: the same measure for `COc1ccc(CCCCNC[C@H]2CC[C@@H](Nc3cc(N(C)C)c4ccccc4n3)CC2)cc1` [compound 1464]: 3 (Class 3 The value of percent of control at 10^−7 M was more than 60% or the value of IC50 was more than 200 nM.).
For `CN(C)c1cc(N[C@H]2CC[C@@H](CNC(=O)Oc3ccc(Br)cc3)CC2)nc2ccccc12` [compound 1563], under setting [4], the class is listed as 3 (Class 3 The value of percent of control at 10^−7 M was more than 60% or the value of IC50 was more than 200 nM.).
On to `CCc1ccc(NC(=O)N[C@H]2CC[C@@H](Nc3nc4c(c(N(C)C)n3)CCCC4)CC2)cc1` [compound 1824], for which, under setting [3], the class is reported as 3 (Class 3 The value of percent of control at 10^−7 M was more than 60% or the value of IC50 was more than 200 nM.).
Take `CN(C)c1nc(N[C@H]2CC[C@@H](NC(=S)Nc3ccc(Br)cc3C(F)(F)F)CC2)nc2c1CCCC2` [compound 1765]: the class under setting [3] was 1 (Class 1: The value of percent of control at 10^−7 M was less than 40% or the value of IC50 was less than 50 nM.).
`CN(C)c1nc(N[C@H]2CC[C@@H](NC(=O)Nc3ccc(C(F)(F)F)cc3)CC2)nc2c1CCCC2` [compound 1878]: the class under setting [3] is recorded as 3 (Class 3 The value of percent of control at 10^−7 M was more than 60% or the value of IC50 was more than 200 nM.).
As to `Cc1cc(N(C)C)nc(N[C@H]2CC[C@@H](NC(=O)c3cc(Cl)cc(Cl)c3)CC2)n1` [compound 2966, 3,5-dichloro-N-(cis-4-{[4-(dimethylamino)-6-methylpyrimidin-2-yl]amino}cyclohexyl)benzamide], the class under setting [2] is 1 (Class 1: The value of percent of control at 10^−7 M was less than 40% or the value of IC50 was less than 50 nM.).
In the case of `CN(C)c1ccnc(N[C@H]2CC[C@@H](NC(=O)C3C[C@H]3c3ccccc3)CC2)n1` (some centres unmarked) [compound 264], the class under setting [3] is 3 (Class 3 The value of percent of control at 10^−7 M was more than 60% or the value of IC50 was more than 200 nM.).
The same measure, in the same setting: the same measure for `Cc1ccc(CNC(=O)N[C@H]2CC[C@@H](Nc3nc4c(c(N(C)C)n3)CCCC4)CC2)cc1` [compound 1895]: 3 (Class 3 The value of percent of control at 10^−7 M was more than 60% or the value of IC50 was more than 200 nM.).
In the case of `CN(C)c1nc(N[C@H]2CC[C@@H](NC(=O)Nc3c(F)cc(Br)cc3F)CC2)nc2c1CCCC2` [compound 1686], the class under setting [4] is given as 3 (Class 3 The value of percent of control at 10^−7 M was more than 60% or the value of IC50 was more than 200 nM.).
Take `Cc1cc(C(=O)NC[C@H]2CC[C@@H](Nc3cc(N(C)C)c4ccccc4n3)CC2)ccc1[N+](=O)[O-]` [compound 803, N-[(cis-4-{[4-(dimethylamino)quinolin-2-yl]amino}cyclohexyl)methyl]-3-methyl-4-nitrobenzamide]: the class under setting [3] is on record as 3 (Class 3 The value of percent of control at 10^−7 M was more than 60% or the value of IC50 was more than 200 nM.).
In the case of `CN(C)c1ccnc(N[C@H]2CC[C@@H](CNC(=O)c3ccc(F)c(Cl)c3)CC2)n1` [compound 418], the class (class 1-3 by percent of control at 10^-7 M or IC50) was 3 (Class 3 The value of percent of control at 10^−7 M was more than 60% or the value of IC50 was more than 200 nM.).
Turning to `CN(C)c1cc(N[C@H]2CC[C@@H](NC(=O)Nc3ccc(C#N)cc3)CC2)nc2ccccc12` [compound 2118], the class under setting [3] is on record as 3 (Class 3 The value of percent of control at 10^−7 M was more than 60% or the value of IC50 was more than 200 nM.).
On the same count and under the same terms, to `COc1ccccc1/C=C/CN[C@H]1CC[C@@H](Nc2nccc(N(C)C)n2)CC1` [compound 1233] belongs 3 (Class 3 The value of percent of control at 10^−7 M was more than 60% or the value of IC50 was more than 200 nM.); to `Cc1cc(C(=O)NC[C@H]2CC[C@@H](Nc3nc4c(c(N(C)C)n3)CCCC4)CC2)nn1C(C)(C)C` [compound 652], 3 (Class 3 The value of percent of control at 10^−7 M was more than 60% or the value of IC50 was more than 200 nM.).
Regarding `COc1ccccc1C(=O)N[C@H]1CC[C@@H](Nc2nc(C)c(C)c(N(C)C)n2)CC1` [compound 2848, N-(cis-4-{[4-(dimethylamino)-5,6-dimethylpyrimidin-2-yl]amino}cyclohexyl)-2-methoxybenzamide], the class under setting [2] is 2 (Class 2: The value of percent of control at 10^−7 M was from 40% to 60% or the value of IC′50 was from 50 nM to 200 nM.).
For `Cc1cc(N[C@H]2CC[C@@H](NC(=O)Nc3ccc(OCc4ccccc4)cc3)CC2)nc2ccccc12` [Example 2558, N-[4-(benzyloxy)phenyl]-N′-{cis-4-[(4-methylquinolin-2-yl)amino]cyclohexyl}urea], the class is 2.
Turning to `CN(C)c1ccnc(N[C@H]2CC[C@@H](CNCc3cccc(C#N)c3)CC2)n1` [compound 1284], the class under setting [3] is 3 (Class 3 The value of percent of control at 10^−7 M was more than 60% or the value of IC50 was more than 200 nM.).
`Cc1ccccc1NC(=S)N[C@H]1CC[C@@H](Nc2nc3c(c(N(C)C)n2)CCCC3)CC1` [compound 1960]: under setting [5], the class is 3 (Class 3 The value of percent of control at 10^−7 M was more than 60% or the value of IC50 was more than 200 nM.).
In the case of `COc1cc(F)c(CNC[C@H]2CC[C@@H](Nc3nccc(N(C)C)n3)CC2)cc1OC` [compound 1321], the class under setting [3] is given as 3 (Class 3 The value of percent of control at 10^−7 M was more than 60% or the value of IC50 was more than 200 nM.).
With `CN(C)c1nc(N[C@H]2CC[C@@H](NC(=S)Nc3ccc(SC(F)(F)F)cc3)CC2)nc2c1CCCC2` [compound 1990], the class under setting [5] was 3 (Class 3 The value of percent of control at 10^−7 M was more than 60% or the value of IC50 was more than 200 nM.).
For the compound `Cc1cnc(N[C@H]2CC[C@@H](CNC(=O)c3cccnc3Oc3ccccc3Br)C2)nc1N(C)C` [compound 3014], the class under setting [2] is recorded as 3 (Class 3 The value of percent of control at 10^−7 M was more than 60% or the value of IC50 was more than 200 nM.).
Same read-out and setting: the same measure for `Cc1cc(C(=O)N[C@H]2CC[C@@H](Nc3ncc(C)c(N(C)C)n3)CC2)ccc1Br` [compound 2920, 4-bromo-N-(cis-4-{[4-(dimethylamino)-5-methylpyrimidin-2-yl]amino}cyclohexyl)-3-methylbenzamide]: 1 (Class 1: The value of percent of control at 10^−7 M was less than 40% or the value of IC50 was less than 50 nM.).
Turning to `CN(C)c1cc(N[C@H]2CC[C@@H](CNC(=O)NC(c3ccccc3)c3ccccc3)CC2)nc2ccccc12` [compound 2389, N-[(cis-4-{[4-(dimethylamino)quinolin-2-yl]amino}cyclohexyl)methyl]-N′-(diphenylmethyl)urea], under setting [1], the class is listed as 2 (Class 2: The value of percent of control at 10^−7 M was from 40% to 60% or the value of IC′50 was from 50 nM to 200 nM.).

(Values after US20050197350A1, “Novel quinoline, tetrahydroquinazoline, and pyrimidine derivatives and methods of treatment related to the use thereof” (TAISHO PHARMACEUTICAL CO., LTD., priority 2003, published 2005).)
